Laboratory results reported in patent US4430263A, “Hapten-inhibitor immunoassay” (Abbott Laboratories, priority 1980, dated 1984).

Test system: sheep T4 antibody (gamma globulin / IgG fraction from sheep antiserum)
Test: Binding constant of T4 antibody binding sites (footnote to Table I, antibody modulation of STI-T4)
Conditions: approximately 7.4 × 10^-8 M antibody binding sites; gamma globulin chromatographically isolated from sheep T4 antibody
Description: A working solution of 2.0 mg/ml gamma globulin (chromatographically isolated from sheep T4 antibody) is prepared in 0.1 M HEPES (N-2-hydroxyethylpiperazine-N'-2-ethanesulfonic acid) buffer, pH 8.0, containing 0.1% gelatin. A stock solution of the STI-T4 (soybean trypsin inhibitor-thyroxine) conjugate (8×10^-7 M) is also prepared in HEPES-gelatin buffer, pH 8.0. A trypsin stock solution is made at 1×10^-7 M in dilute HCl, pH 3.0, and stored at 4° C. The trypsin working reagent is diluted to a concentration of 8.2×10^-8 M with HCl gelatin, pH 3.0. Equal volumes (50 μl) of the thyroxine STI conjugate and antibody are mixed and incubated at room temperature for 5 minutes. Trypsin is then added to the mixture, incubated for 30 seconds, and a 25 μl portion of the assay mixture diluted into a cuvette with 250 μl of substrate (0.5 mM benzoylphenylalanylvalyl arginine p-nitroaniline in 0.05 M Tris pH 8.1 with 0.01 M CaCl2). The change in absorbance with time (t=5.5 minutes less t=0.5 minutes) is recorded using a Bichromatic Analyzer equipped with a 380/450 mμ filter. The following table gives the results for a suitable conjugate prepared in Example I.
A working solution of 1 mg/ml anti-T4 IgG (from sheep antiserum) is prepared in barbital buffer with gelatin. The approximate concentration of binding sites from […] analysis is 1.2×10^-7 M.

In the case of `N[C@@H](Cc1cc(I)c(Oc2cc(I)c(O)c(I)c2)c(I)c1)C(=O)O` [thyroxine], the “K (antibody binding sites)” value is reported as ~1.3 × 10^9.
